Results from patent US7109206B2.

What was measured:
[1] = tested on: patients with severe coronary artery disease; experiment: Angina symptoms and clinical outcome of treated patients (case reports); assay type: in vivo, human; details: for angina frequency: buspirone 20 mg t.i.d.; for time to clearing of congestive heart failure: furosemide 40 mg twice a day, digoxin 0.25 mg, warfarin 5 mg once a day
Text: The patient population in this study consisted of 11 individuals with severe coronary artery disease who were refractory to CABG or PCTA or who declined recommended CABG or PCTA, and one individual with severe carotid artery stenosis. The study group consisted of 10 men and 2 women, with a median age at entry into the program of 65 years (mean, 65.8 years), and a mean time in program of 4.1 years (range, 9 months to 12 years).
In this study, ten patients experienced angina at the time of presentation. The median time to remission of anginal symptoms was calculated on the basis of the nine patients who presented with angina and for whom records of anginal frequency were accessible.

[2] = Serum lipids and laboratory values of treated patients (case reports)
[3] = tested on: patients with severe coronary artery disease; experiment: Tolerability / adverse effects in treated patients

O=C1CC2(CCCC2)CC(=O)N1CCCCN1CCN(c2ncccn2)CC1 [buspirone]
angina ([1]; Patient five, buspirone 15 mg t.i.d. added, induction phase): their angina remitted
angina frequency ([1]; Patient five, no use of nitroglycerin): one episode of mild angina in two weeks
angina frequency ([1]; Patient five, through June of the next year): no episodes of angina
angina symptoms ([1]; Patient five, buspirone increased to 20 mg t.i.d., isosorbide dinitrate discontinued): Marked palliation of the symptoms
chest tightness with anxiety or distress ([1]; Patient one, buspirone 10 mg b.i.d. added to medications): no further episodes of chest tightness were reported
frequency of angina symptoms ([1]; Patient, buspirone 30 mg per day, after one month 15 mg t.i.d.): remained approximately constant
severity of angina symptoms ([1]; Patient, buspirone 30 mg per day, after one month 15 mg t.i.d., added to medications): declined markedly, from pain to mild tightness
anginal symptoms ([1]; Patient, buspirone, six months after initiation of therapy): resolved completely
relief from refractory unstable angina ([1]; summary of results): effective in providing relief from refractory unstable angina

C[C@H]1O[C@@H](O[C@H]2[C@@H](O)C[C@H](O[C@H]3[C@@H](O)C[C@H](O[C@H]4CC[C@@]5(C)[C@H](CC[C@@H]6[C@@H]5C[C@@H](O)[C@]5(C)[C@@H](C7=CC(=O)OC7)CC[C@]65O)C4)O[C@@H]3C)O[C@@H]2C)C[C@H](O)[C@@H]1O [digoxin]
time to clearing of congestive heart failure ([1]; Patient three, given together): 24 h

COc1ccc([C@@H]2Sc3ccccc3N(CCN(C)C)C(=O)[C@@H]2OC(C)=O)cc1 [diltiazem]
angina ([1]; Patient three, diltiazem restarted after one month of lisinopril): prompt remission of angina

NCCCC[C@H](N[C@@H](CCc1ccccc1)C(=O)O)C(=O)N1CCC[C@H]1C(=O)O [lisinopril]
angina ([1]; Patient three, lisinopril 5 mg/day substituted for diltiazem 60 mg four times a day): Angina recurred with mild to moderate exercise

CC[C@H](C)C(=O)O[C@H]1C[C@@H](C)C=C2C=C[C@H](C)[C@H](CC[C@@H]3C[C@@H](O)CC(=O)O3)[C@H]21 [lovastatin]
total cholesterol ([2]; Patient two, fifth year, lovastatin discontinued, range 155 to 194): 176 mg/dL
adverse event ([3]; Patient four, on lovastatin 30 mg per day regimen, pravastatin substituted): mild conjunctivitis of unknown etiology

O=C(O)c1cccnc1 [niacin]
adverse effect ([3]; Patient three, niacin 3.0 g/day, weeks 5-7, dose decreased to 1.5 g/day): itching and flushing
tolerability ([3]; Patient two, niacin 3 g per day, dose decreased to 1 g per day): intolerance appeared

O=[N+]([O-])OCC(CO[N+](=O)[O-])O[N+](=O)[O-] [nitroglycerin]
angina after discontinuation ([1]; Patient five, discontinuation of the nitroglycerin): five episodes of angina
nonexertional angina ([1]; Patient five, transdermal nitroglycerin): refractory
left neck pain ([1]; Patient two, 15 months after induction of therapy): relieved

CCC(C)(C)C(=O)O[C@H]1C[C@@H](C)C=C2C=C[C@H](C)[C@H](CC[C@@H]3C[C@@H](O)CC(=O)O3)[C@H]21 [simvastatin]
serum total cholesterol, mean of five determinations ([2]; Patient four, simvastatin 40 mg per day substituted for pravastatin in the regimen, range 81-146): 118 mg/dL
HDL cholesterol, mean of five determinations ([2]; Patient four, simvastatin 40 mg per day, range 37-71): 55 mg/dL
HDL ([2]; Patient four, year of 1995): 82 mg/dL
LDL ([2]; Patient four, year of 1995): 53 mg/dL
total cholesterol ([2]; Patient four, year of 1995): 121 mg/dL
triglycerides ([2]; Patient four, year of 1995): 44 mg/dL

O=c1n(CCCN2CCN(c3cccc(Cl)c3)CC2)nc2ccccn12 [trazodone]
relief of fatigue and difficulty sleeping ([1]; Patient three, trazodone 50 mg and imipramine 25 mg at bedtime, given together): fair to moderate relief

CC(=O)CC(c1ccccc1)c1c(O)c2ccccc2oc1=O (centres unmarked) [warfarin]
time to clearing of congestive heart failure ([1]; Patient three, given together): 24 h

colestipol
angina ([1]; Patient five, colestipol 12 g per day): severity of their angina declined
serum total cholesterol, mean of three determinations ([2]; Patient five, colestipol 12 g per day, declined from 241): 217 mg/dL
